Measurements published in US20190231783A1, “PHARMACEUTICAL FORMULATIONS” (Corvus Pharmaceuticals, Inc., priority 2018, published 2019).
“And” between values parts separate entries of the source, which are not always exact repeats. Equal entries are not always repeated.

Experiments:
[1] = Particle size distribution by laser diffraction (nanomilled suspensions, cast films, layered beads); format: physicochemical; details: crystalline drug particles used to prepare Nanosuspension #001-35 (Table 13A)
Method: “Particle size distribution” or “PSD” or “size distribution” refers to the size of particles present in their relative proportions in a sample, as measured by laser diffraction spectroscopy. In aspects, the particle size distribution refers to the particle size distribution of all the drug particles in the composition. The particle size distribution of a sample is measured by laser diffraction spectroscopy. Laser diffraction spectrometers are commercially available as, e.g., MASTERSIZER® 3000 from Malvern Instruments Ltd, and HORIBA® LA-950 by Horiba Instruments, Inc., Irvine Calif. For laser diffraction spectroscopy, particle size distribution is generally described by D values, such as D90. In aspects, the laser diffraction spectroscopy can be analyzed by the Fraunhofer theory. In aspects, the laser diffraction spectroscopy can be analyzed by the Mie scattering theory. In aspects, the laser diffraction spectroscopy can be analyzed by a combination of the Fraunhofer theory and the Mie scattering theory.
Particle size measurements were obtained using water as dispersing media in the fraction cell of the laser diffraction particle size analyzer and analyzed using a refractive index of 1.60+0.01i in water.
Samples at different time points were withdrawn and checked for particle size distribution by laser diffraction and appearance by optical microscopy.

[2] = Assay and impurities of MBP dispersions, initial and on storage at 40° C./75% RH; format: physicochemical; details: initial (MBP) or API
Method: Chemical Characterization of samples.
Stability Studies. All initial samples of the MBP were kept in closed 75 mL HDPE bottles and monitored at 40° C. and 75% relative humidity (RH) for up to 3 months. The physical state and chemical stability were reported by XRPD, and assay and impurity. […] The assay and impurity results from the MBP dispersions, stored at 40° C. and 75% relative humidity closed conditions for up to 3 months, and at 40° C. and 75% relative humidity open conditions for up to 2 weeks are reported in the Tables 9D and 9E below.

[3] = Chemical characterization (assay, impurities) of drug-layered beads and capsules, initial and at CRT/ACC storage; format: physicochemical
Text: The amount of the smaller size drug nanoparticles increased as the level of coating increased, with the smaller hump representing the particle size distribution of the drug nanoparticle suspension and the larger hum representing the particle size distribution of the sugar spheres, which largely remained unchanged throughout the process. […] The particle size distribution of the drug nanoparticles on sugar spheres was similar to that of the particle size distribution of drug nanoparticles in the film.
The assay was low, most likely due to the size of the batch (200 grams) since the minimum amount of drug suspension had to be used, which is smaller than the optimum size for the Vector FL1 fluid bed.
The capsules were stored and monitored at controlled room temperature (CRT, 25° C./60% RH) and accelerated conditions (ACC, 40° C./75% RH), and evaluated for chemical characterization up to 3 months, as shown in Table 15C and Table 15D, respectively.

[4] = Solubility / kinetic solubility in pH 6.8 phosphate buffer; format: physicochemical; details: 37 °C, thermodynamic from solid
Method: Kinetic solubility is a supersaturated or metastable and time-dependent state as opposed to true time-independent equilibrium solubility. […] The bottle was rotated at 50 rpm up to 4 hours at 37° C. Samples were collected at 5, 10, 15, 20, 25, 30, 45, 60, 75, 90, 120, 180, and 240 minutes time points. The samples were filtered using […] PVDF filter and diluted with acetonitrile in 1:1 ratio immediately. The samples were analyzed by HPLC. The concentration of phosphate buffer had only a minor effect on the solubility of the DS or the amorphous solid dispersion (extrudate), and the surfactant made it more difficult to distinguish the enhancement of the solubility.
Solubility Studies. […] Amorphous solid dispersions with 30% drug loading of Formula III with three different stabilizing polymers were evaluated. In particular, excess sample (either Formula (III) milled extrudate or Formula (III) as a control) was added into the bottle containing 120 mL of each media to ensure saturation.
At the same time, SLS diminished the discrimination between the crystalline and amorphous forms. Thus it is advisable to avoid SLS in the dissolution media for kinetic solubility studies.

[5] = Dissolution of un-milled vs nano-milled Formula (III) suspensions (sink and non-sink); format: physicochemical
Method: Dissolution at non-sink conditions was tested to further compare un-milled and milled Formula (III) formulations.

[6] = Assay (% LC) and impurities by HPLC of HME extrudates and tablets, initial and on storage
Text: “Total impurities” refers to in the common pharmaceutical nomenclature as the total sum of all measured impurities and degradation products from the drug substance and is also referred to as total related substances. […] A gradient method was used with 0.1% (V/V) methanesulfonic acid in water as the first mobile phase and acetonitrile as the second. A C18 column with UV detection at 225 nm was used. Acetonitrile-water mixture was used for dilution of the samples.
Chemical stability. […] The impurity profile of the formulations was compared to the crystalline Formula (III) used in the HME extrudate (Table 2C).
Thermal degradation was closely monitored due to the high processing temperature. […] Selected major impurities in the extrudate that could be attributed to the processing condition were summarized based on the relative retention time (RRT) and shown in Table 2E.
Chemical Characterization of stability samples.

[7] = Assay and related substances by HPLC of nanosuspensions, after milling and on storage; format: physicochemical
Method: Assay and Related Substance Testing. Formulations B, D, and E were tested for assay and related substances (RS) to detect the compatibility with the excipients. […] Assay/RS was not determined at TO for this study.

[8] = initial (formulation) or API as used, listed as API

Particle Size Distribution D10 [1]: 73 nm
Particle Size Distribution D50 [1]: 169 nm
Particle Size Distribution D90 [1]: 714 nm
Total Impurity % [2]: 0.82%
Total Specified Impurity % [2]: 0.46%
Total Impurities ([3]; API): 0.8%
Total Impurities % ([3]; initial chemical characterization of the beads (Table 14C)): 0.80%
solubility at 240 min ([4]; phosphate buffer with sodium lauryl sulphate, pH 6.8, aqueous with cosolvent or surfactant or cyclodextrin, 10 mM Phosphate buffer, pH 6.8, 0.5% SLS): 419 µg/mL
solubility at 240 min ([4]; phosphate buffer with sodium lauryl sulphate, pH 6.8, aqueous with cosolvent or surfactant or cyclodextrin, 10 mM Phosphate buffer, pH 6.8, 1.0% SLS): 593 µg/mL
solubility at 240 min ([4]; phosphate buffer with sodium lauryl sulphate, pH 6.8, aqueous with cosolvent or surfactant or cyclodextrin, 50 mM Phosphate buffer, pH 6.8, 0.5% SLS): 386 µg/mL
solubility at 240 min ([4]; phosphate buffer with sodium lauryl sulphate, pH 6.8, aqueous with cosolvent or surfactant or cyclodextrin, 50 mM Phosphate buffer, pH 6.8, 1.0% SLS): 627 µg/mL
solubility at 240 min ([4]; phosphate buffer, pH 6.8, aqueous buffer, 10 mM Phosphate buffer, pH 6.8, No Surfactant): 23 µg/mL
solubility at 240 min ([4]; phosphate buffer, pH 6.8, aqueous buffer, 50 mM Phosphate buffer, pH 6.8, No Surfactant): 19 µg/mL
Solubility dependence on pH [5]: increases significantly below pH 3
Time to complete dissolution ([5]; acid medium, sink condition): 45 min
Solubility of a 100 mg dose in 900 mL phosphate buffer at pH 6.8 ([5]; non-sink condition): not fully soluble
Total Impurities ([6]; initial (Table 8E)): 0.8%
Total Impurities % [6, 8]: 0.82% and 0.818% and 0.80%
Total Specified Impurities % [6, 8]: 0.46% and 0.462%
Potency (Assay %) ([7]; T = 0 (formulation) or API): 100%
% Impurity by RRT 0.80 ([7]; T = 0 or API): 0.2%
% Impurity by RRT 0.94 ([7]; T = 0 or API): 0.2%
% Impurity by RRT 10.6 ([7]; T = 0 or API): 0.2%
Total Impurity % ([7]; T = 0 or API): 0.6%
Related substances (RS) of the standard ([7]; standard, unmilled): 0.6%
SMILES: Cc1ccc(-c2nc(N)nc3c2nnn3Cc2cccc(COC3CCOC3)n2)o1 (stereo not shown) [Formula (III)]
